Assay results from ChEMBL document CHEMBL1201862, “PubChem BioAssay data set” (2004).
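Cells were grown in 96-well plates and exposed to each compound for 48 hours at five concentrations; endpoints were interpolated linearly between bracketing concentrations, or set to the highest concentration if not reached. The concentration for 50% growth inhibition is given as GI50.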 Activity calls are given as the source filed them. No stated cut-off is given here; in the data, active = GI50 up to about 1.1 µM and inactive = higher.

Columns and labels:
Assay in all cases: DTP human tumour cell line panel, 48 h
SK-MEL-2 = test system: SK-MEL-2
UO-31 = test system: UO-31
RXF 393 = test system: RXF 393
SNB-75 = test system: SNB-75
Malme-3M = test system: Malme-3M
CCRF-CEM = test system: CCRF-CEM
MOLT-4 = test system: MOLT-4
SK-MEL-28 = test system: SK-MEL-28
NCI-H226 = test system: NCI-H226
EKVX = test system: EKVX
HOP-62 = test system: HOP-62
A498 = test system: A498
K562 = test system: K562
CAKI-1 = test system: CAKI-1
SR = test system: SR
NCI/ADR-RES = test system: NCI/ADR-RES
PC-3 = test system: PC-3
MDA-MB-231 = test system: MDA-MB-231
MDA-MB-435 = test system: MDA-MB-435
Hs-578T = test system: Hs-578T

Compound	GI50 (SK-MEL-2)	GI50 (UO-31)	GI50 (RXF 393)	GI50 (SNB-75)	GI50 (Malme-3M)	GI50 (CCRF-CEM)	GI50 (MOLT-4)	GI50 (SK-MEL-28)	GI50 (NCI-H226)	GI50 (EKVX)	GI50 (HOP-62)	GI50 (A498)	GI50 (K562)	GI50 (CAKI-1)	GI50 (SR)	GI50 (NCI/ADR-RES)	GI50 (PC-3)	GI50 (MDA-MB-231)	GI50 (MDA-MB-435)	GI50 (Hs-578T)
O=C1CCC[C@]2(CCCC(=O)N2)C1	> 100 µM (inactive)	> 100 µM (inactive)	> 100 µM (inactive)	77.4 µM (inactive)	> 100 µM (inactive)	> 100 µM (inactive)	> 100 µM (inactive)	> 100 µM (inactive)	> 100 µM (inactive)	> 100 µM (inactive)	> 100 µM (inactive)	> 100 µM (inactive)	> 100 µM (inactive)	> 100 µM (inactive)	> 100 µM (inactive)	–	–	–	–	–
Fc1cccc(F)c1C1SCc2nc3cc4ccccc4cc3n21 (stereo not given)	> 100 µM (inactive)	–	28.4 µM (inactive)	20.7 µM (inactive)	39.2 µM (inactive)	22.4 µM (inactive)	15.3 µM (inactive)	49.7 µM (inactive)	23.3 µM (inactive)	54.6 µM (inactive)	95.9 µM (inactive)	21.2 µM (inactive)	12.1 µM (inactive)	88.1 µM (inactive)	17.5 µM (inactive)	> 100 µM (inactive)	23 µM (inactive)	27.5 µM (inactive)	49.9 µM (inactive)	–
OCC(O)COCn1cc(Cn2ncc3c(O)ncnc32)nn1 (stereo not given)	> 100 µM (inactive)	> 100 µM (inactive)	–	–	–	> 100 µM (inactive)	> 100 µM (inactive)	> 100 µM (inactive)	> 100 µM (inactive)	> 100 µM (inactive)	> 100 µM (inactive)	> 100 µM (inactive)	> 100 µM (inactive)	> 100 µM (inactive)	> 100 µM (inactive)	> 100 µM (inactive)	> 100 µM (inactive)	> 100 µM (inactive)	> 100 µM (inactive)	–
COc1c(O)cc2c(c1O)C1O[C@H](CO)C(O)[C@H](O)[C@H]1OC2=O (stereo not given in full)	> 100 µM (inactive)	–	> 100 µM (inactive)	> 100 µM (inactive)	> 100 µM (inactive)	> 100 µM (inactive)	> 100 µM (inactive)	> 100 µM (inactive)	> 100 µM (inactive)	–	> 100 µM (inactive)	–	> 100 µM (inactive)	> 100 µM (inactive)	> 100 µM (inactive)	> 100 µM (inactive)	> 100 µM (inactive)	> 100 µM (inactive)	> 100 µM (inactive)	–
CC1=C(N2CC2)C(=O)c2nc3n(c2C1=O)CCC3O (stereo not given)	0.7 µM (active)	0.388 µM (active)	0.187 µM (active)	0.485 µM (active)	0.176 µM (active)	1.36 µM (inactive)	0.912 µM (active)	0.252 µM (active)	0.697 µM (active)	0.438 µM (active)	0.126 µM (active)	0.205 µM (active)	0.472 µM (active)	0.275 µM (active)	2.25 µM (inactive)	–	–	–	0.0188 µM (active)	0.0239 µM (active)
[O-][S+]1CSSC1	15.6 µM (inactive)	18.7 µM (inactive)	19.9 µM (inactive)	27.7 µM (inactive)	36.7 µM (inactive)	4.42 µM (inactive)	5.36 µM (inactive)	27.4 µM (inactive)	26.3 µM (inactive)	31.3 µM (inactive)	36.3 µM (inactive)	43.8 µM (inactive)	3.07 µM (inactive)	28.1 µM (inactive)	9.79 µM (inactive)	–	–	–	–	–
COc1ccc(/C=C2\CN(C)CC3C2=NN(c2ccccc2)C3c2ccc(OC)cc2)cc1 (stereo not given)	–	> 100 µM (inactive)	13 µM (inactive)	–	41.7 µM (inactive)	> 100 µM (inactive)	> 100 µM (inactive)	> 100 µM (inactive)	> 100 µM (inactive)	> 100 µM (inactive)	38 µM (inactive)	33.8 µM (inactive)	> 100 µM (inactive)	60 µM (inactive)	–	> 100 µM (inactive)	–	–	> 100 µM (inactive)	42.8 µM (inactive)
COc1cc2c3cc1Oc1c(OC)c(OC)cc4c1[C@@H](Cc1ccc(O)c(c1)Oc1ccc(cc1)C[C@@H]3N(C)CC2)N(C)CC4.c1ccccc1	16.9 µM (inactive)	15.7 µM (inactive)	12.4 µM (inactive)	6.27 µM (inactive)	17.2 µM (inactive)	17.5 µM (inactive)	10.9 µM (inactive)	15.3 µM (inactive)	22.2 µM (inactive)	13.9 µM (inactive)	18.1 µM (inactive)	20.3 µM (inactive)	8.69 µM (inactive)	1.79 µM (inactive)	2.33 µM (inactive)	–	–	–	–	–
Cc1ccc(S(=O)(=O)N(/N=C(\N)Oc2ccc(Cl)cc2)C(=N)Oc2ccc(Cl)cc2)cc1	> 100 µM (inactive)	> 100 µM (inactive)	74.1 µM (inactive)	> 100 µM (inactive)	> 100 µM (inactive)	> 100 µM (inactive)	> 100 µM (inactive)	> 100 µM (inactive)	> 100 µM (inactive)	> 100 µM (inactive)	> 100 µM (inactive)	> 100 µM (inactive)	> 100 µM (inactive)	> 100 µM (inactive)	> 100 µM (inactive)	–	–	–	–	–
O=C1CC(c2ccccc2)=Nc2ccccc2N1	> 100 µM (inactive)	> 100 µM (inactive)	> 100 µM (inactive)	> 100 µM (inactive)	> 100 µM (inactive)	65 µM (inactive)	> 100 µM (inactive)	> 100 µM (inactive)	> 100 µM (inactive)	> 100 µM (inactive)	> 100 µM (inactive)	24.7 µM (inactive)	> 100 µM (inactive)	> 100 µM (inactive)	> 100 µM (inactive)	–	–	–	–	–
COc1cc(C2c3cc4c(cc3OC(NN)C2C)OCO4)cc(OC)c1O (stereo not given)	3.3 µM (inactive)	19.8 µM (inactive)	15.3 µM (inactive)	4.28 µM (inactive)	5.71 µM (inactive)	–	–	6.75 µM (inactive)	25.4 µM (inactive)	–	–	–	3.08 µM (inactive)	10.4 µM (inactive)	–	4.52 µM (inactive)	10.4 µM (inactive)	9.2 µM (inactive)	2.32 µM (inactive)	–
COc1ccc(-c2oc3c(OC)c(OC)c(OC)c(O)c3c(=O)c2OC)cc1O	0.0546 µM (active)	0.082 µM (active)	0.0559 µM (active)	0.0443 µM (active)	0.065 µM (active)	0.0135 µM (active)	0.0989 µM (active)	< 0.01 µM (active)	0.0612 µM (active)	0.836 µM (active)	0.403 µM (active)	1.6 µM (inactive)	< 0.01 µM (active)	0.557 µM (active)	0.0702 µM (active)	–	–	–	–	–
O=C1NC(=S)NC(=O)C1=Cc1ccc([N+](=O)[O-])o1	46.9 µM (inactive)	39.2 µM (inactive)	19.3 µM (inactive)	16.2 µM (inactive)	14.7 µM (inactive)	23.9 µM (inactive)	19.7 µM (inactive)	25 µM (inactive)	> 100 µM (inactive)	21.1 µM (inactive)	> 100 µM (inactive)	> 100 µM (inactive)	23.9 µM (inactive)	19.5 µM (inactive)	19.6 µM (inactive)	–	–	–	–	–
